The test system of one data set is Escherichia coli EC-14. The data set can be described thus: Protection test in mice challenged intraperitoneally with Escherichia coli EC-14. The following applies: for ED50: Escherichia coli, 168 h. The format is in vivo. Here is the method:
To each group consisting of 5 to 10 mice is challenged 2 to 3×10^5 Escherichia coli EC-14 in 5% mucin intraperitoneally. After 1 hour and 5 hours, a suspension of the ester (1) in the foregoing experiment in 5% acacia solution is administered enterally using a tube into stomach. From the survival rate after 7 days, ED50 of the drug is calculated, and the value in mg/kg is interpreted as the corresponding carboxylic acid.
For using as control, it is necessary to use the effect of the corresponding carboxylic acid. […] Then instead, the ED50 value of the corresponding carboxylic acid (2) on subcutaneous injection is assayed and this is used to evaluate the enteral absorption of the ester (1).
The control value of ED50 for the carboxylic acid (2) is estimated as follows: To each group consisting of 5 to 10 mice challenged by Escherichia coli EC-14 intraperitoneally as in the case of oral experiment above is injected a solution of the carboxylic acid (2) in 0.7% aqueous sodium hydrogen carbonate subcutaneously after 1 and 5 hours after the challenge. The ED50 value is calculated from the survival rate from 7 days and expressed in mg/kg value.

For data set [1] the following is noted: prior-art compound, statement in words; cited from earlier work.
The conditions of data set [2]: prior-art compound, statement in words; cited from earlier work. The source holds these as a separate data set.
Setting [3] is: EC14, sc, subcutaneous in 0.7% aqueous sodium hydrogen carbonate 1 and 5 hours after challenge, survival 7 days, control for ester, read-out: ED50 of Acid (2) subc.
The mark [4] stands for this setting: p.o. 1 and 5 hours after challenge, survival after 7 days, value interpreted as the corresponding carboxylic acid, 10080 min.
Where [5] appears, read: EC14, po, p.o. 1 and 5 hours after challenge, survival after 7 days, value interpreted as the corresponding carboxylic acid, read-out: ED50 of Ester (1) p.o.
The mark [6] stands for this setting: subcutaneous in 0.7% aqueous sodium hydrogen carbonate 1 and 5 hours after challenge, survival 7 days, control for ester, 10080 min.
Setting [7] is: subcutaneous in 0.7% aqueous sodium hydrogen carbonate 1 and 5 hours after challenge, survival 7 days, control for ester.

These results are taken from US4376770A, “Cephalosporin analogs for oral use” (Shionogi & Co., Ltd., priority 1980, dated 1983).

Like-named read-outs stand apart in the source and are kept apart here.

Turning to “7β-(2-cyanopropionamido)-7α-methoxy-3-(1-methyl-5-tetrazolyl)thiomethyl-1-dethia-1-oxa-3-cephem-4-carboxylic acid pivaloyloxymethyl ester [No. 1]”, the “ED50 of Ester (1) p.o.” value with Escherichia coli EC-14 (p.o. 1 and 5 hours after challenge, survival after 7 days, value interpreted as the corresponding carboxylic acid) came out at 1.39 mg/kg. The term ED50 denotes the dose that gives a 50% effect, or the effect in half of the subjects. `CO[C@@]1(NC(=O)C(C)C#N)C(=O)N2C(C(=O)O)=C(CSc3nnnn3C)CO[C@@H]21` (some centres unmarked) [1 (Acid (2))]: the ED50 in the data set on Escherichia coli EC-14 (setting [3]) is 1.68 mg/kg. As to `CCOC(=O)OC(C)OC(=O)C1=C(CSc2nnnn2C)CO[C@H]2N1C(=O)[C@]2(NC(=O)C(C#N)CC)OC` (single isomer, unassigned) [No. 6, 7β-(2-cyano-n-butyryl)amino-7α-methoxy-3-(1-methyl-5-tetrazolyl)thiomethyl-1-dethia-1-oxa-3-cephem-4-carboxylic acid 1-(ethoxycarbonyloxy)ethyl ester], the “ED50 of Ester (1) p.o.” value in the data set with Escherichia coli EC-14 (setting [4]) stood at 2.35 mg/kg. With `CCOC(=O)OC(C)OC(=O)C1=C(CSc2nncs2)CO[C@H]2N1C(=O)[C@]2(NC(=O)C(C#N)CC)OC` (some centres unmarked) [compound 10], the ED50 in the data set on Escherichia coli EC-14 (setting [5]) was 3.23 mg/kg.

On to `CCCC(C#N)C(=O)N[C@]1(OC)C(=O)N2C(C(=O)OC(C)OC(=O)OCC)=C(CSc3nnnn3C)CO[C@@H]21` (single isomer, unassigned) [compound 7], for which, in the data set on Escherichia coli EC-14 (setting [5]), the ED50 is 4.7 mg/kg.

As for `CC(=O)OCC1=C(C(=O)OCOC(=O)C(C)(C)C)N2C(=O)[C@@H](NC(=O)CC#N)[C@H]2SC1` [7β-Cyanoacetamidocephalosporanic acid pivaloyloxymethyl ester], the oral absorption result in data set [1] was “does not show oral absorption sufficient as clinical drugs”. As to `CCC(C#N)C(=O)N[C@]1(OC)C(=O)N2C(C(=O)O)=C(CSc3nnnn3C)CO[C@@H]21` (some centres unmarked) [6 (Acid (2))], the “ED50 of Acid (2) subc.” value in the data set with Escherichia coli EC-14 (setting [6]) is 0.45 mg/kg. For the compound `CCC(C#N)C(=O)N[C@]1(OC)C(=O)N2C(C(=O)O)=C(CSc3nnnn3C)CO[C@@H]21` (some centres unmarked) [2 (Acid (2))], in the data set on Escherichia coli EC-14 (setting [3]), the ED50 was found to be 0.47 mg/kg. Take `CCCC(C#N)C(=O)N[C@]1(OC)C(=O)N2C(C(=O)O)=C(CSc3nnnn3C)CO[C@@H]21` (some centres unmarked) [3 (Acid (2))]: the ED50 in the data set with Escherichia coli EC-14 (setting [3]) is 0.6 mg/kg. With `CC(=O)OCC1=C(C(=O)O)N2C(=O)[C@@H](NC(=O)CC#N)[C@H]2OC1` [7β-Cyanoacetamido-1-dethia-1-oxacephalosporanic acid], the antibacterial activity result in data set [2] is on record as “weak antibacterial”.

As for `CCC(C#N)C(=O)N[C@]1(OC)C(=O)N2C(C(=O)O)=C(CSc3nncs3)CO[C@@H]21` (some centres unmarked) [9 (Acid (2))], the ED50 in the data set with Escherichia coli EC-14 (setting [3]) stood at 0.77 mg/kg. Same read-out and setting: in the case of `CCCCC(C#N)C(=O)N[C@]1(OC)C(=O)N2C(C(=O)O)=C(CSc3nnnn3C)CO[C@@H]21` (some centres unmarked) [4 (Acid (2))] it was 3.18 mg/kg. For `CCCCC(C#N)C(=O)N[C@]1(OC)C(=O)N2C(C(=O)OCOC(=O)C(C)(C)C)=C(CSc3nnnn3C)CO[C@@H]21` (some centres unmarked) [compound 4], in the data set on Escherichia coli EC-14 (setting [5]), the ED50 was found to be 29.8 mg/kg. In the case of `CCC(C#N)C(=O)N[C@]1(OC)C(=O)N2C(C(=O)O)=C(CSc3nnnn3C)CO[C@@H]21` (some centres unmarked) [5 (Acid (2))], in the data set with Escherichia coli EC-14 (setting [6]), the “ED50 of Acid (2) subc.” value was found to be 0.45 mg/kg. As for `CCCC(C#N)C(=O)N[C@]1(OC)C(=O)N2C(C(=O)OC(C)OC(=O)OCC)=C(CSc3nnnn3C)CO[C@@H]21` (single isomer, unassigned) [compound 8], the “ED50 of Ester (1) p.o.” value in the data set on Escherichia coli EC-14 (setting [4]) is recorded as 2.82 mg/kg. Regarding `CCOC(=O)OC(C)OC(=O)C1=C(CSc2nnnn2C)CO[C@H]2N1C(=O)[C@]2(NC(=O)C(C#N)CC)OC` (single isomer, unassigned) [compound 5], the ED50 with Escherichia coli EC-14 (setting [5]) stood at 2.22 mg/kg.

Regarding `CCCC(C#N)C(=O)N[C@]1(OC)C(=O)N2C(C(=O)O)=C(CSc3nnnn3C)CO[C@@H]21` (some centres unmarked) [7 (Acid (2))], in the data set with Escherichia coli EC-14 (setting [7]), the “ED50 of Acid (2) subc.” value is listed as 0.60 mg/kg.

As to `CCC(C#N)C(=O)N[C@]1(OC)C(=O)N2C(C(=O)O)=C(CSc3nnc(C)s3)CO[C@@H]21` (some centres unmarked) [11 (Acid (2))], the ED50 in the data set on Escherichia coli EC-14 (setting [3]) came to 0.87 mg/kg. As for `CCC(C#N)C(=O)N[C@]1(OC)C(=O)N2C(C(=O)OCOC(=O)C(C)(C)C)=C(CSc3nnc(C)s3)CO[C@@H]21` (some centres unmarked) [compound 11], the ED50 in the data set on Escherichia coli EC-14 (setting [5]) stood at 3.7 mg/kg. With `CCC(C#N)C(=O)N[C@]1(OC)C(=O)N2C(C(=O)O)=C(CSc3nncs3)CO[C@@H]21` (some centres unmarked) [10 (Acid (2))], in the data set on Escherichia coli EC-14 (setting [7]), the “ED50 of Acid (2) subc.” value came out at 0.77 mg/kg. For the compound `CCC(C#N)C(=O)N[C@]1(OC)C(=O)N2C(C(=O)OCOC(=O)C(C)(C)C)=C(CSc3nncs3)CO[C@@H]21` (some centres unmarked) [No. 9], the ED50 in the data set on Escherichia coli EC-14 (setting [5]) was found to be 6.5 mg/kg. Turning to `CCCC(C#N)C(=O)N[C@]1(OC)C(=O)N2C(C(=O)OCOC(=O)C(C)(C)C)=C(CSc3nnnn3C)CO[C@@H]21` (some centres unmarked) [compound 3], in the data set on Escherichia coli EC-14 (setting [5]), the 50% effective dose (ED50) amounted to 5.32 mg/kg. On to `CCCC(C#N)C(=O)N[C@]1(OC)C(=O)N2C(C(=O)O)=C(CSc3nnnn3C)CO[C@@H]21` (some centres unmarked) [8 (Acid (2))], for which the “ED50 of Acid (2) subc.” value in the data set with Escherichia coli EC-14 (setting [7]) is reported as 0.60 mg/kg.
